{
  "source": "patent US20260306644A1",
  "about": "“ANTIBODY RECRUITING MOLECULES FOR THE TREATMENT OF CORONAVIRUS DISEASE-19” (priority 2023, published 2026)",
  "key": {"[1]": {"molecular_target": "T1, SARS-CoV-2 Spike A (wild-type) (Severe acute respiratory syndrome coronavirus 2, UniProt P0DTC2)", "T1 construct": "purchased Meso Scale Diagnostics, LLC V-PLEX SARS-CoV-2 Panel 13 (ACE2) Kit / Panel 23 (ACE2) Kit", "experiment": "MSD ACE2 competition assay (inhibition of Spike binding with ACE2, ECL), A (wild-type)", "details": "IC50 Wild Type, Wild Type Spike"}, "SARS-CoV-2 Spike protein": {"molecular_target": "SARS-CoV-2 Spike protein (Severe acute respiratory syndrome coronavirus 2, UniProt P0DTC2)", "experiment": "Ternary binding of SARS-CoV-2 Spike protein (293T cells expressing Spike-GFP, IgG-AF647, flow cytometry)", "type": "cell-based", "details": "293T cells expressing Spike-GFP; IgG-AF647 10 μg/ml; repeat values/batches listed separately; read-out: SARS-CoV-2 Ternary binding EC50", "description": "293T cells stably expressing SARS-CoV-2 Spike-GFP protein on their surface were incubated with a concentration range of compound for 30 minutes at 37° C.-5% CO2 in Roswell Park Memorial Institute Medium (RPMI)-5% low IgG serum with 10 μg/ml IgG-Alexa Fluor® 647 (AF647). The cells were washed twice using the same medium, resuspended in phosphate-buffered saline (PBS)-1% bovine serum albumin (BSA), and acquired on Attune™ NxT Flow Cytometer. In some embodiments, mean fluorescence intensity of AF647 as well as […] AF647 positive in GFP positive gate are reported as readouts in this assay."}},
  "note": "Where “and” joins values, the source holds several entries; their conditions need not be identical. Equal values may be shown once.",
  "data": [
    {"smiles": "CC[C@H](C)[C@H](NC(=O)[C@H](CC(C)C)NC(=O)[C@H](CC(=O)O)NC(=O)[C@H](CO)NC(=O)[C@@H](NC(=O)[C@H](CCCNC(=N)N)NC(=O)[C@H](CCSC)NC(=O)[C@H](CO)NC(=O)[C@H](C)NC(=O)[C@H](CCC(=O)O)NC(=O)[C@H](C)NC(=O)[C@H](Cc1c[nH]cn1)NC(=O)CNC(=O)[C@H](CC(C)C)NC(=O)[C@H](CCC(=O)O)NC(=O)[C@H](CC(=O)O)NC(=O)[C@H](CC(C)C)NC(=O)[C@H](CC(C)C)NC(=O)[C@H](CCCNC(=N)N)NC(=O)[C@H](CCSC)NC(=O)[C@@H](NC(=O)[C@H](CCC(=O)O)NC(=O)[C@H](Cc1ccc(O)cc1)NC(=O)[C@@H](NC(=O)[C@H](CCCCN)NC(=O)[C@H](CCC(N)=O)NC(=O)[C@H](CC(C)C)NC(=O)[C@@H](NC(=O)[C@H](Cc1c[nH]c2ccccc12)NC(=O)[C@H](CCC(=O)O)NC(=O)[C@H](CCCCN)NC(=O)[C@H](CC(=O)O)NC(C)=O)[C@@H](C)CC)[C@@H](C)CC)[C@@H](C)CC)C(C)C)C(=O)N[C@@H](Cc1ccc(O)cc1)C(=O)N[C@@H](CCC(=O)O)C(=O)N[C@@H](Cc1ccccc1)C(=O)N[C@@H](CCSC)C(=O)N[C@@H](CCCCN)C(=O)N[C@@H](CCCCN)C(=O)NCC(=O)O", "note": "[Compound 103]", "values": [
      {"measurement": "IC50", "setting": "[1]", "value": 6.22, "unit": "nM"},
      {"measurement": "EC50", "setting": "SARS-CoV-2 Spike protein", "value": "> 10", "unit": "nM"}
    ]},
    {"smiles": "CC[C@H](C)[C@H](NC(=O)[C@H](CC(C)C)NC(=O)[C@H](CC(=O)O)NC(=O)[C@H](CO)NC(=O)[C@@H](NC(=O)[C@H](CCCNC(=N)N)NC(=O)[C@H](CCSC)NC(=O)[C@H](CO)NC(=O)[C@H](C)NC(=O)[C@H](CCC(=O)O)NC(=O)[C@H](C)NC(=O)[C@H](Cc1c[nH]cn1)NC(=O)CNC(=O)[C@H](CC(C)C)NC(=O)[C@H](CCC(=O)O)NC(=O)[C@H](CC(=O)O)NC(=O)[C@H](CC(C)C)NC(=O)[C@H](CC(C)C)NC(=O)[C@H](CCCNC(=N)N)NC(=O)[C@H](CCSC)NC(=O)[C@@H](NC(=O)[C@H](CCC(=O)O)NC(=O)[C@H](Cc1ccc(O)cc1)NC(=O)[C@@H](NC(=O)[C@H](CCCCN)NC(=O)[C@H](CCC(N)=O)NC(=O)[C@H](CC(C)C)NC(=O)[C@@H](NC(=O)[C@H](Cc1c[nH]c2ccccc12)NC(=O)[C@H](CCC(=O)O)NC(=O)[C@H](CCCCN)NC(=O)[C@@H](N)CC(=O)O)[C@@H](C)CC)[C@@H](C)CC)[C@@H](C)CC)C(C)C)C(=O)N[C@@H](Cc1ccc(O)cc1)C(=O)N[C@@H](CCC(=O)O)C(=O)N[C@@H](Cc1ccccc1)C(=O)N[C@@H](CCSC)C(=O)N[C@@H](CCCCN)C(=O)N[C@@H](CCCCN)C(=O)NCC(=O)NCC(=O)NCC(=O)NCC(=O)N[C@@H](CC(=O)O)C(=O)N[C@H]1CSSC[C@@H](C(=O)N[C@H](C(=O)O)[C@@H](C)O)NC(=O)[C@H](Cc2c[nH]c3ccccc23)NC(=O)[C@H](C(C)C)NC(=O)[C@H](CC(C)C)NC(=O)[C@H](CCC(=O)O)NC(=O)CNC(=O)[C@H](CC(C)C)NC(=O)[C@H](Cc2c[nH]cn2)NC(=O)[C@H](Cc2c[nH]c3ccccc23)NC(=O)[C@H](C)NC1=O", "note": "[Compound 106]", "values": [
      {"measurement": "IC50", "setting": "[1]", "value": 22.1, "unit": "nM"},
      {"measurement": "EC50", "setting": "SARS-CoV-2 Spike protein", "value": "2.6 nM and 2.5 nM"}
    ]},
    {"smiles": "CC[C@H](C)[C@H](NC(=O)[C@H](CC(C)C)NC(=O)[C@H](CC(=O)O)NC(=O)[C@H](CO)NC(=O)[C@@H](NC(=O)[C@H](CCCNC(=N)N)NC(=O)[C@H](CCSC)NC(=O)[C@H](CO)NC(=O)[C@H](C)NC(=O)[C@H](CCC(=O)O)NC(=O)[C@H](C)NC(=O)[C@H](Cc1c[nH]cn1)NC(=O)CNC(=O)[C@H](CC(C)C)NC(=O)[C@H](CCC(=O)O)NC(=O)[C@H](CC(=O)O)NC(=O)[C@H](CC(C)C)NC(=O)[C@H](CC(C)C)NC(=O)[C@H](CCCNC(=N)N)NC(=O)[C@H](CCSC)NC(=O)[C@@H](NC(=O)[C@H](CCC(=O)O)NC(=O)[C@H](Cc1ccc(O)cc1)NC(=O)[C@@H](NC(=O)[C@H](CCCCN)NC(=O)[C@H](CCC(N)=O)NC(=O)[C@H](CC(C)C)NC(=O)[C@@H](NC(=O)[C@H](Cc1c[nH]c2ccccc12)NC(=O)[C@H](CCC(=O)O)NC(=O)[C@H](CCCCN)NC(=O)[C@H](CC(=O)O)NC(C)=O)[C@@H](C)CC)[C@@H](C)CC)[C@@H](C)CC)C(C)C)C(=O)N[C@@H](Cc1ccc(O)cc1)C(=O)N[C@@H](CCC(=O)O)C(=O)N[C@@H](Cc1ccccc1)C(=O)N[C@@H](CCSC)C(=O)N[C@@H](CCCCN)C(=O)N[C@@H](CCCCN)C(=O)NCC(=O)NCC(=O)NCC(=O)NCC(=O)N[C@@H](CC(=O)O)C(=O)N[C@H]1CSSC[C@@H](C(=O)N[C@H](C(=O)O)[C@@H](C)O)NC(=O)[C@H](Cc2c[nH]c3ccccc23)NC(=O)[C@H](C(C)C)NC(=O)[C@H](CC(C)C)NC(=O)[C@H](CCC(=O)O)NC(=O)CNC(=O)[C@H](CC(C)C)NC(=O)[C@H](Cc2c[nH]cn2)NC(=O)[C@H](Cc2c[nH]c3ccccc23)NC(=O)[C@H](C)NC1=O", "note": "[Compound 107]", "values": [
      {"measurement": "IC50", "setting": "[1]", "value": 36.2, "unit": "nM"},
      {"measurement": "EC50", "setting": "SARS-CoV-2 Spike protein", "value": "3.1 nM and 4.5 nM"}
    ]},
    {"smiles": "CC[C@H](C)[C@H](NC(=O)[C@H](CC(C)C)NC(=O)[C@H](CC(=O)O)NC(=O)[C@H](CO)NC(=O)[C@@H](NC(=O)[C@H](CCCNC(=N)N)NC(=O)[C@H](CCSC)NC(=O)[C@H](CO)NC(=O)[C@H](C)NC(=O)[C@H](CCC(=O)O)NC(=O)[C@H](C)NC(=O)[C@H](Cc1c[nH]cn1)NC(=O)CNC(=O)[C@H](CC(C)C)NC(=O)[C@H](CCC(=O)O)NC(=O)[C@H](CC(=O)O)NC(=O)[C@H](CC(C)C)NC(=O)[C@H](CC(C)C)NC(=O)[C@H](CCCNC(=N)N)NC(=O)[C@H](CCSC)NC(=O)[C@@H](NC(=O)[C@H](CCC(=O)O)NC(=O)[C@H](Cc1ccc(O)cc1)NC(=O)[C@@H](NC(=O)[C@H](CCCCN)NC(=O)[C@H](CCC(N)=O)NC(=O)[C@H](CC(C)C)NC(=O)[C@@H](NC(=O)[C@H](Cc1c[nH]c2ccccc12)NC(=O)[C@H](CCC(=O)O)NC(=O)[C@H](CCCCN)NC(=O)[C@@H](N)CC(=O)O)[C@@H](C)CC)[C@@H](C)CC)[C@@H](C)CC)C(C)C)C(=O)N[C@@H](Cc1ccc(O)cc1)C(=O)N[C@@H](CCC(=O)O)C(=O)N[C@@H](Cc1ccccc1)C(=O)N[C@@H](CCSC)C(=O)N[C@@H](CCCCN)C(=O)N[C@@H](CCCCN)C(=O)NCC(=O)N[C@@H](CCC(N)=O)C(=O)N[C@@H](C)C(=O)N1CCC[C@H]1C(=O)N[C@@H](CC(=O)O)C(=O)N[C@H]1CSSC[C@@H](C(=O)N[C@H](C(=O)O)[C@@H](C)O)NC(=O)[C@H](Cc2c[nH]c3ccccc23)NC(=O)[C@H](C(C)C)NC(=O)[C@H](CC(C)C)NC(=O)[C@H](CCC(=O)O)NC(=O)CNC(=O)[C@H](CC(C)C)NC(=O)[C@H](Cc2c[nH]cn2)NC(=O)[C@H](Cc2c[nH]c3ccccc23)NC(=O)[C@H](C)NC1=O", "note": "[Compound 108]", "values": [
      {"measurement": "IC50", "setting": "[1]", "value": 20.6, "unit": "nM"},
      {"measurement": "EC50", "setting": "SARS-CoV-2 Spike protein", "value": "2.7 nM and 1.9 nM"}
    ]},
    {"smiles": "CC[C@H](C)[C@H](NC(=O)[C@H](CC(C)C)NC(=O)[C@H](CC(=O)O)NC(=O)[C@H](CO)NC(=O)[C@@H](NC(=O)[C@H](CCCNC(=N)N)NC(=O)[C@H](CCSC)NC(=O)[C@H](CO)NC(=O)[C@H](C)NC(=O)[C@H](CCC(=O)O)NC(=O)[C@H](C)NC(=O)[C@H](Cc1c[nH]cn1)NC(=O)CNC(=O)[C@H](CC(C)C)NC(=O)[C@H](CCC(=O)O)NC(=O)[C@H](CC(=O)O)NC(=O)[C@H](CC(C)C)NC(=O)[C@H](CC(C)C)NC(=O)[C@H](CCCNC(=N)N)NC(=O)[C@H](CCSC)NC(=O)[C@@H](NC(=O)[C@H](CCC(=O)O)NC(=O)[C@H](Cc1ccc(O)cc1)NC(=O)[C@@H](NC(=O)[C@H](CCCCN)NC(=O)[C@H](CCC(N)=O)NC(=O)[C@H](CC(C)C)NC(=O)[C@@H](NC(=O)[C@H](Cc1c[nH]c2ccccc12)NC(=O)[C@H](CCC(=O)O)NC(=O)[C@H](CCCCN)NC(=O)[C@H](CC(=O)O)NC(C)=O)[C@@H](C)CC)[C@@H](C)CC)[C@@H](C)CC)C(C)C)C(=O)N[C@@H](Cc1ccc(O)cc1)C(=O)N[C@@H](CCC(=O)O)C(=O)N[C@@H](Cc1ccccc1)C(=O)N[C@@H](CCSC)C(=O)N[C@@H](CCCCN)C(=O)N[C@@H](CCCCN)C(=O)NCC(=O)NCCOCCOCCOCCOCCOCCOCCOCCOCCNC(=O)[C@@H]1CSCC(=O)N[C@@H](C)C(=O)N[C@@H](CO)C(=O)N[C@@H](Cc2ccc(O)cc2)C(=O)N[C@@H](Cc2c[nH]cn2)C(=O)N[C@@H](CC(C)C)C(=O)NCC(=O)N[C@@H](CCC(=O)O)C(=O)N[C@@H](CC(C)C)C(=O)N[C@@H](C(C)C)C(=O)N[C@@H](Cc2c[nH]c3ccccc23)C(=O)N2Cc3ccccc3C[C@H]2C(=O)NC(C)(C)C(=O)N1", "note": "[Compound 161]", "values": [
      {"measurement": "EC50", "setting": "SARS-CoV-2 Spike protein", "value": 2.2, "unit": "nM"}
    ]},
    {"smiles": "CC[C@H](C)[C@H](NC(=O)[C@H](CC(C)C)NC(=O)[C@H](CC(=O)O)NC(=O)[C@H](CO)NC(=O)[C@@H](NC(=O)[C@H](CCCNC(=N)N)NC(=O)[C@H](CCSC)NC(=O)[C@H](CO)NC(=O)[C@H](C)NC(=O)[C@H](CCC(=O)O)NC(=O)[C@H](C)NC(=O)[C@H](Cc1c[nH]cn1)NC(=O)CNC(=O)[C@H](CC(C)C)NC(=O)[C@H](CCC(=O)O)NC(=O)[C@H](CC(=O)O)NC(=O)[C@H](CC(C)C)NC(=O)[C@H](CC(C)C)NC(=O)[C@H](CCCNC(=N)N)NC(=O)[C@H](CCSC)NC(=O)[C@@H](NC(=O)[C@H](CCC(=O)O)NC(=O)[C@H](Cc1ccc(O)cc1)NC(=O)[C@@H](NC(=O)[C@H](CCCCN)NC(=O)[C@H](CCC(N)=O)NC(=O)[C@H](CC(C)C)NC(=O)[C@@H](NC(=O)[C@H](Cc1c[nH]c2ccccc12)NC(=O)[C@H](CCC(=O)O)NC(=O)[C@H](CCCCN)NC(=O)[C@H](CC(=O)O)NC(=O)CCOCCOCCOCCOCCNC(=O)CCCC[C@@H]1SC[C@@H]2NC(=O)N[C@@H]21)[C@@H](C)CC)[C@@H](C)CC)[C@@H](C)CC)C(C)C)C(=O)N[C@@H](Cc1ccc(O)cc1)C(=O)N[C@@H](CCC(=O)O)C(=O)N[C@@H](Cc1ccccc1)C(=O)N[C@@H](CCSC)C(=O)N[C@@H](CCCCN)C(=O)N[C@@H](CCCCN)C(=O)NCC(=O)O", "note": "[Compound 209]", "values": [
      {"measurement": "EC50", "setting": "SARS-CoV-2 Spike protein", "value": 1.1, "unit": "nM"}
    ]}
  ]
}
